Measurements: US9289429B2, “Compounds and methods for inhibiting phosphate transport” (Ardelyx, Inc., priority 2010, dated 2016)

Columns and labels:
rat NaP2b (SLC34A2) = target: T1, rat NaP2b (SLC34A2) (Rattus norvegicus, UniProt Q9JJ09); assay: NaP2b-mediated Pi transport (33P uptake) in transfected HEK293 cells, rat transporter; format: cell-based; conditions: HEK293 cells transfected with rat NaP2b, 33P phosphate uptake, 100 uM KH2PO4; read-out: pIC50 range for rat Nap2b (converted)
T1 construct: host or cells: HEK293
T1 sequence (Q9JJ09 1-695): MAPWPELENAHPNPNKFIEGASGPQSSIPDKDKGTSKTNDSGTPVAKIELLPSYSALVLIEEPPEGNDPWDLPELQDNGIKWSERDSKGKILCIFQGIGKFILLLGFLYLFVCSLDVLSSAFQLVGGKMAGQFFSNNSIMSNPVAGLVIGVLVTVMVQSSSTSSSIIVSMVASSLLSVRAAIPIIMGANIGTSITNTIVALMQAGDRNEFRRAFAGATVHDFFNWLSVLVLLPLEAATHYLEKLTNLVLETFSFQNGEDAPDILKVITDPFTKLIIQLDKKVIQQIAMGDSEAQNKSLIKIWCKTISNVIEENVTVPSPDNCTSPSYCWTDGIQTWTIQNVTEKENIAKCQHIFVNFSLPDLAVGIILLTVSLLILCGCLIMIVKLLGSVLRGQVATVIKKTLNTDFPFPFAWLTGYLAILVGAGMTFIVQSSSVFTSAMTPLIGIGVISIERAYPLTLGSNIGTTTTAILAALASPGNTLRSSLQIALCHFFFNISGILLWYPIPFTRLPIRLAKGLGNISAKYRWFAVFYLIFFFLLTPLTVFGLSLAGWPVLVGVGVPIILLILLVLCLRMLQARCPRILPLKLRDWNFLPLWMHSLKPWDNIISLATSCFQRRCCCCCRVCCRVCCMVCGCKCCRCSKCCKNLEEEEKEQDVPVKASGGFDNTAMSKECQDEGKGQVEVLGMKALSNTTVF
Description: HEK293 cells were obtained from the American Type Culture collection and propagated per their instructions. Expression clones for rat and human NaP2b (SLC34A2) were obtained from Open Biosystems (Catalog numbers MRN1768-9510282, and MHS1010-99823026, respectively). The sequence of the human protein was mutated to insert a threonine after residue 37, and to introduce a N39D mutation.
The rate of phosphate (Pi) uptake into HEK293 cells was measured using a modification of the method described by Mohrmann et al. (Mohrmann, I., Mohrmann, M., Biber, J., and Murer, H. (1986) Am. J. Phys. 250(3 Pt 1):G323-30.) Transfected HEK293 cells were treated with a pharmacological agent to minimize endogenous PiT-mediated phosphate transport activity, such that the only remaining sodium-dependent phosphate transport activity is that which was bestowed by introduction of the NaP2b genes.
Cells were seeded into 96-well plates at 25,000 cells/well and cultured overnight. Lipofectamine 2000 (Invitrogen) was used to introduce the NaP2b cDNA, and the cells were allowed to approach confluence during a second overnight incubation. […] Cells were then overlayed with either choline uptake buffer or sodium uptake buffer (14 mM Tris, 137 mM sodium chloride, 5.4 mM KCl, 2.8 mM CaCl2, 1.2 mM MgSO4, 100 uM KH2PO4, PiT-silencing agent, 1 mg/mL Bovine Serum Albumin, pH 7.4) containing 6-9 uCi/mL ^33P orthophosphoric acid (Perkin Elmer) and test compound. Each compound was tested at twelve concentrations ranging from 0.1 nM to 30 uM. Assays were run in duplicate.
After incubation for 3-30 minutes at room temperature, assay mixtures were removed, and the cells were washed twice with ice cold stop solution (137 mM sodium chloride, 14 mM Tris, pH 7.4). Cells were lysed by addition of 20 μL 0.1% Tween 80 followed by 100 μL scintillation fluid, and counted using a TopCount (Perkin Elmer).
pIC50 (the negative log of the IC50) values of the test compounds were calculated using GraphPad Prism.

[1] = Determination of compound Cmax and AUC after oral gavage; format: in vivo; conditions: Sprague-Dawley, rat plasma, actual oral dose 8.9 mg/kg (Example 11) or 10 mg/kg (Example 2)
Description: Sprague-Dawley rats were orally gavaged with test article at a nominal dose of 2.5 or 10 mg/kg and blood was collected at 0.5, 1, 2 and 4 h. Blood samples were processed to plasma using K2EDTA as an anticoaglulant. Plasma samples were treated with acetonitrile containing an internal standard, precipitated proteins removed by centrifugation. Supernatants were analyzed by LC-MS/MS and compound concentrations were determined by interpolated from a standard curve prepared in plasma. All compounds were orally dosed at the dosage shown, and pharmacokinetic parameters determined

[2] = Fecal recovery of orally administered compounds; format: in vivo; conditions: rat, oral gavage, feces collected until 48 hr after dosing, same animals as Example 22
Description: Quantitative determination of test compound level in feces after oral gavage was performed using the same set of animals used to determine test compound concentration in plasma (Example 22). The animals were kept in metabolic cages and feces were collected from the time of dosing until 48 hr after dosing. Upon collection, feces was dried by lyophilization and ground to a visually homogenous powder. Duplicate samples of ground feces from each individual animal were weighed out and extracted using organic solvent. Extracted samples were then diluted into mobile phase and test compound levels were quantitatively determined by LC-MS/MS analysis as described in “Example 22” except that the standard curve was prepared in a feces matrix. Extraction conditions were not optimized for individual compounds, and thus may represent a minimal level of recovery.

Sprague-Dawley rats = assay: In vivo bolus phosphate challenge; conditions: rat, oral, Drug Dose 30 (unit not given), serum 30 min post phosphate bolus
Description: By pretreating animals with a low phosphorus diet followed by the subsequent dosing of a phosphorus bolus, serum phosphorus levels were monitored after 30 minutes as a surrogate for intestinal phosphorus absorption. […] The in vivo bolus phosphorus challenge model used here mimics this model in rats.
Male, 7-week-old Sprague-Dawley rats (Charles-River laboratories international, Hollister, Calif.) were allowed to acclimate for a minimum of 3 days before switching to a synthetic low-phosphorus diet (TD.85010, Harlan Teklad, Madison, Wis.) which contains 0.1% phosphorus and 0.6% calcium. At day 5, testing compounds or vehicle alone (as indicated) were orally administered at the indicated dose in a volume of 5 ml/kg, followed by a bolus gavage of monobasic sodium phosphate (1 mmol in 1 ml) 15 min after compound dosing. Serum was collected via retroorbital bleeding 30 min post phosphate bolus and phosphate levels were determined utilizing an ACE ALERA blood chemistry analyzer (Alfa Wassermann Diagnostic Technologies, West Caldwell, N.J.).
The extent of inhibition by test compounds on the elevation of serum phosphate levels in response to the bolus of phosphate is shown in Table 3 (data are expressed as % Inhibition, with 6-10 animals per data point). The differences between groups were evaluated by one-way analysis of variance with Dunnett's post hoc tests.

Row | SMILES | IC50 (rat NaP2b (SLC34A2)) [µM] | Cmax ([1]; LLOQ 5 ng/mL) [ng/mL] | AUC ([1]; samples 0.5-4 h) [ng·h/mL] | % recovered in feces [2] [%] | % Inhibition of Serum P elevation (Sprague-Dawley rats) [%]
1 | O=C(O)CCSCc1cccc(C(=O)Nc2ccc(N3CCCCC3)cc2C(=O)Nc2cnc(-c3ccccc3)nc2)c1 [Example 2, 3-((3-((2-((2-Phenylpyrimidin-5-yl)carbamoyl)-4-(piperidin-1-yl)phenyl)carbamoyl)benzyl)thio)propanoic acid] | 1 to 7.94 | 645 | 822 | 16 | 
2 | O=C(O)CCSCc1cccc(C(=O)Nc2ccc(N3CCCCC3)cc2C(=O)Nc2cnc(-c3cccc(C(F)(F)F)c3)nc2)c1 [Example 4, 3-((3-((4-(Piperidin-1-yl)-2-((2-(3-(trifluoromethyl)phenyl)pyrimidin-5-yl)carbamoyl)phenyl)carbamoyl)benzyl)thio)propanoic acid] | 1 to 7.94 |  |  |  | 11
